Experimental findings from US4637901A, “N-(alpha-haloacyl)-N-hydrocarbyl carbamoyl halides” (priority 1985, dated 1987) are described below.

Assay type in all cases: in vivo
Assay [1] deals with certain mites and insects including the Bean Aphid, Southern Army Worm, Mexican Bean Beetle and house fly. Nature of the assay: Pesticidal activity against certain mites and insects (overall comparison). Particulars: for activity in words (comparison as set forth in Table I): prior art derivatives compared with derivatives of the invention. The method, then: A comparision of an oxime derivative of the novel compounds of this invention was evaluated to determine its pesticidal activity against certain mites and insects including the Bean Aphid, Southern Army Worm, Mexican Bean Beetle and house fly. The oxime derivative was also compared with typical derivative of this oxime as disclosed in British Pat. No. 1,226,450.
(§1) Suspensions of the test compounds were prepared by dissolving one gram of compound in 50 milliliters of acetone in which had been dissolved 0.1 gram (10 percent of the weight of compound) of an alkylphenoxy polyethoxyethanol surfactant, as an emulsifying or dispersing agent. The resulting solution was mixed into 150 milliliters of water to give roughly 200 milliliters of a suspension containing the compound in finely divided form. The thus-prepared stock suspension contained 0.5 percent by weight of compound.
(§2) Certain of the test compounds were also prepared by dissolving 375 mg of compound in 7.5 ml of dimethylformamide. Fifteen ml of acetone containing 37.5 mg (10 percent of the weight of test compound) of an alkylphenoxy polyethoxyethanol surfactant, as a wetting/emulsifying/dispersing agent was added to the dimethylformamide solution. Fifty-two and a half ml of water was mixed into the dimethylformamide-acetone mixture to give roughly 75 ml of a suspension containing the compound in solution or in finely divided form. The thus prepared stock suspension contained 0.5 percent by weight of compound. The test concentrations in parts per million by weight employed in the tests described hereinbelow were obtained by appropriate dilutions of the stock suspension with water.

Assay [2] deals with Southern Armyworm (Spodoptera eridania, (Cram.)) larvae. Description: Southern Armyworm Leaf Spray Bait Test. Particulars: 120 h, five days, read-out: Biological activity (LD50 in ppm), Southern Army Worm. The method, then:
as §1
as §2, with “water. The test procedures were as follows:” for “water.”
Southern Armyworm Leaf Spray Bait Test
Larvae of the southern armyworm (Spodoptera eridania, (Cram.)), reared on Tendergreen bean plants at a temperature of 80°±5° F. and a relative humidity of 50±5 percent, constituted the test insects.
The test compounds were formulated by diluting the stock suspension with water to give a suspension containing 500 parts of test compound per million parts of final formulation. Potted Tendergreen bean plants of standard height and age were placed on a revolving turntable and sprayed with 100-110 milliliters of test compound formulation by use of a DeVilbiss spray gun set at 40 psig air pressure. This application, which lasted 25 seconds, was sufficient to wet plants to run-off. […] Percent mortality was recorded for various concentration levels.

The subject of assay [3] is House Fly (Musca domestica, L.). Description: Fly Bait Test. Particulars: 24 h, adult flies, sugar bait, twenty-four hours, read-out: Biological activity (LD50 in ppm), House Fly. The method, then: as §1
as §2, with “water. The test procedures were as follows:” for “water.”
Four to six day old adult house flies (Musca domestica, L.), reared according to the specifications of the Chemical Specialties Manufacturing Association (Blue Book, McNair-Dorland Co., N.Y. 1954; pages 243-244, 261) under controlled conditions of 80°±5° F. and 50±5 percent relative humidity, were the test insects. The flies were immobilized by anesthetizing with carbon dioxide and twenty-five immobilized individuals, males and females, were transferred to a cage consisting of a standard food strainer about five inches in diameter which was inverted over a wrapping-paper-covered surface. […]

Assay [4] has as its system Mexican Bean Beetle (Epilachna varivestis, Muls.) larvae. Nature of the assay: Mexican Bean Beetle Leaf Spray Test. The conditions noted are these: 120 h, five days, read-out: Biological activity (LD50 in ppm), Mexican Bean Beetle. Here is the method:
as §1
as §2, with “water. The test procedures were as follows:” for “water.”
Mexican Bean Beetle Leaf Spray Test
Fourth instar larvae of the Mexican bean beetle (Epilachna varivestis, Muls.), reared on Tendergreen bean plants at a temperature of 80°±5° F. and 50±5 percent relative humidity, were the test insects.
For certain of the tests second instar larvae (weighing about 6 mg) of the Mexican bean beetle (Epilachna varvestis, Muls), reared on Seiva Pole lima bean plants at a temperature of 80°±5° F. and […] relative humidity, were the test insects.
The test compounds were formulated by diluting the stock suspension with water to give a suspension containing 500 parts of test compound per million parts of final formulation. […]

In assay [5] the test system is Bean Aphid (Aphis fabae Scop.). Description: Bean Aphid Foliage Spray Test. Particulars: foliar, potted dwarf nasturtium plants, 24 hour holding period, read-out: Biological activity (LD50 in ppm), Bean Aphid. The method, then:
as §1
as §2, with “water. The test procedures were as follows:” for “water.”
Bean Aphid Foliage Spray Test
Adults and nymphal stages of the bean aphid (Aphis fabae Scop.) reared on potted dwarf nasturtrium plants at 68°-70° F. and 50±5 percent relative humidity, constituted the test insects. For testing purposes, the number of aphids per pot was standardized to 100-150 by trimming plants containing excess aphids. […]
The potted plants (one pot per compound tested) infested with 100-150 aphids were placed on a revolving turntable and sprayed with 100-110 milliliters of test compound formulation by use of a DeVilbiss spray gun set at 40 psig air pressure. […] Percent mortality was recorded for various concentration levels.

In brackets after ≈: the same amount, converted by molar mass.

As for `COC(=O)Nc1ccc(OC(=O)N(C)C(=O)C[N+](C)(C)C)cc1C(C)C`, the “pesticidal properties (in words)” value in assay [1] (trimethyl amine salt of the N-haloacylcarbamate) is recorded as “excellent pesticidal properties”.

Turning to `CSC(C)=NOC(=O)N(C)C(=O)CCl` [(XII)], the LC50 in assay [2] amounted to 20 µg/mL (≈ 83.8 µM); in assay [3], 6 µg/mL (≈ 25.1 µM); in assay [4] it was 35 µg/mL (≈ 147 µM); in assay [5], 16 µg/mL (≈ 67 µM).

As to `CSC(C)=NOC(=O)N(C)C(=O)CCCCl` [(XIVa)], the LC50 was found to be 310 µg/mL (≈ 1160 µM) in assay [2], 25 µg/mL (≈ 93.7 µM) in assay [3], 310 µg/mL (≈ 1160 µM) in assay [4] and 37 µg/mL (≈ 139 µM) in assay [5]. For the same compound, in assay [1], the “activity in words (comparison as set forth in Table I)” value was “less active or inactive”.

On to `CCC(=O)N(C)C(=O)ON=C(C)SC` [(XIVb)], for which the LC50 in assay [2] was found to be 60 µg/mL (≈ 275 µM); in assay [3], 500 µg/mL (≈ 2290 µM); in assay [4], 200 µg/mL (≈ 916 µM); in assay [5] it was 500 µg/mL (≈ 2290 µM). Moreover, the “activity in words (comparison as set forth in Table I)” value in assay [1] was “less active or inactive”.
